Measurements from paper PMC12060275, “Biochemical, Structural, and Conformational Characterization of a Fungal Ethylene-Forming Enzyme” (Biochemistry, 2025).

Assays:
[1] = target: T1, PK2 EFE (Pseudomonas savastanoi, UniProt P32021); assay: succinate production by LC-MS/MS versus 2OG concentration; format: biochemical; design: recombinant from E. coli, His6 tag removed with TEV protease, apoprotein after EDTA/DTT treatment; conditions: no L-Arg (uncoupled decarboxylation), 0.2 mM Fe(II), 0.4 mM L-ascorbate, 25 mM HEPES pH 7.5, 22 °C
T1 sequence (P32021 whole entry): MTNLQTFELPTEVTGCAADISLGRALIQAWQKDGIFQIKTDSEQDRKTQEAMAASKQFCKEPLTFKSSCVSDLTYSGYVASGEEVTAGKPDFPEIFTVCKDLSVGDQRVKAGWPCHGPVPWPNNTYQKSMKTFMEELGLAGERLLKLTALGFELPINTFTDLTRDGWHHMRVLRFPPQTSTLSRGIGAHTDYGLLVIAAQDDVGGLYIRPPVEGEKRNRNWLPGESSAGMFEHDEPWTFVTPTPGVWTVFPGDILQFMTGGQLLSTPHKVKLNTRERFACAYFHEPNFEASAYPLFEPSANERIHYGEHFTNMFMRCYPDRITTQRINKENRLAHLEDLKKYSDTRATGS

[2] = target: T1, PK2 EFE; conditions: 1 mM 2OG, 1 mM L-Arg, 0.4 mM Fe(II), 1 mM L-ascorbate, 25 mM HEPES pH 7.5, room temperature

| Compound | succinate production by LC-MS/MS versus 2OG concentration [1] | ethylene by GC and P5C by 2-aminobenzaldehyde assay (partition ratio) [2] |
| --- | --- | --- |
| O=C(O)CCC(=O)C(=O)O [2OG] | such an uncoupled reaction occurs in both Pd1 and PK2 versions of EFE |  |
| N=C(N)NCCC[C@H](N)C(=O)O [L-Arg] |  | we compared the ethylene/P5C partition ratios for PK2 EFE and Pd1 EFE |
